In data set [1] the test system is Escherichia coli. Nature of the data set: Antibacterial activity against ESBL-producing multidrug-resistant Escherichia coli clinical isolate 14-1 assessed as inhibition of bacterial growth incubated for 18 to 20 hrs by two fold serial dilution assay. In kind it is functional. Particulars: time 18-20 hrs.
Data set [2] has as its system Escherichia coli. Nature of the data set: Antibacterial activity against ESBL-producing multidrug-resistant Escherichia coli clinical isolate 14-2 assessed as inhibition of bacterial growth incubated for 18 to 20 hrs by two fold serial dilution assay. In kind it is functional. Particulars: time 18-20 hrs.
Data set [3] relates to Escherichia coli. Briefly: Antibacterial activity against ESBL-producing multidrug-resistant Escherichia coli clinical isolate 14-4 assessed as inhibition of bacterial growth incubated for 18 to 20 hrs by two fold serial dilution assay. In kind it is functional. Particulars: time 18-20 hrs.
Data set [4] concerns Klebsiella pneumoniae. Nature of the data set: Antibacterial activity against KPC-2 producing multidrug-resistant Klebsiella pneumoniae clinical isolate 15-1 assessed as inhibition of bacterial growth incubated for 18 to 20 hrs by two fold serial dilution assay. In kind it is functional. Particulars: time 18-20 hrs.
Data set [5] deals with Klebsiella pneumoniae. Nature of the data set: Antibacterial activity against KPC-2 producing multidrug-resistant Klebsiella pneumoniae clinical isolate 15-2 assessed as inhibition of bacterial growth incubated for 18 to 20 hrs by two fold serial dilution assay. In kind it is functional. Particulars: time 18-20 hrs.
In data set [6] the test system is Klebsiella pneumoniae. Nature of the data set: Antibacterial activity against KPC-2 producing multidrug-resistant Klebsiella pneumoniae clinical isolate 15-5 assessed as inhibition of bacterial growth incubated for 18 to 20 hrs by two fold serial dilution assay. It is filed as functional. Particulars: time 18-20 hrs.
The subject of data set [7] is Escherichia coli. Nature of the data set: Antibacterial activity against Escherichia coli ATCC35218 assessed as inhibition of bacterial growth incubated for 18 to 20 hrs by two fold serial dilution assay. It is filed as functional. As to conditions: time 18-20 hrs.
Data set [8] deals with Pseudomonas aeruginosa. Briefly: Antibacterial activity against IMP-4 producing multidrug-resistant Pseudomonas aeruginosa clinical isolate 17-13 assessed as inhibition of bacterial growth incubated for 18 to 20 hrs by two fold serial dilution assay. It is filed as functional. Particulars: time 18-20 hrs.
The test system of data set [9] is Pseudomonas aeruginosa. Briefly: Antibacterial activity against IMP-4 producing multidrug-resistant Pseudomonas aeruginosa clinical isolate 17-1 assessed as inhibition of bacterial growth incubated for 18 to 20 hrs by two fold serial dilution assay. It is filed as functional. As to conditions: time 18-20 hrs.
In data set [10] the test system is Pseudomonas aeruginosa. Nature of the data set: Antibacterial activity against IMP-4 producing multidrug-resistant Pseudomonas aeruginosa clinical isolate 19-17 assessed as inhibition of bacterial growth incubated for 18 to 20 hrs by two fold serial dilution assay. It is filed as functional. As to conditions: time 18-20 hrs.
The subject of data set [11] is Acinetobacter baumannii. Nature of the data set: Antibacterial activity against OXA-23 producing multidrug-resistant Acinetobacter baumannii clinical isolate 17-2 assessed as inhibition of bacterial growth incubated for 18 to 20 hrs by two fold serial dilution assay. It is filed as functional. As to conditions: time 18-20 hrs.
Data set [12] relates to Acinetobacter baumannii. Briefly: Antibacterial activity against OXA-23 producing multidrug-resistant Acinetobacter baumannii clinical isolate 17-3 assessed as inhibition of bacterial growth incubated for 18 to 20 hrs by two fold serial dilution assay. It is filed as functional. Particulars: time 18-20 hrs.
Data set [13] deals with Pseudomonas aeruginosa. Briefly: Antibacterial activity against IMP-4 producing multidrug-resistant Pseudomonas aeruginosa clinical isolate 19-5 assessed as inhibition of bacterial growth incubated for 18 to 20 hrs by two fold serial dilution assay. In kind it is functional. As to conditions: time 18-20 hrs.
The test system of data set [14] is Pseudomonas aeruginosa. Briefly: Antibacterial activity against IMP-4 producing multidrug-resistant Pseudomonas aeruginosa clinical isolate 19-1 assessed as inhibition of bacterial growth incubated for 18 to 20 hrs by two fold serial dilution assay. In kind it is functional. Particulars: time 18-20 hrs.
Data set [15] concerns Acinetobacter baumannii. Briefly: Antibacterial activity against OXA-23 producing multidrug-resistant Acinetobacter baumannii clinical isolate 17-5 assessed as inhibition of bacterial growth incubated for 18 to 20 hrs by two fold serial dilution assay. It is filed as functional. As to conditions: time 18-20 hrs.
Data set [16] relates to Acinetobacter baumannii. Nature of the data set: Antibacterial activity against OXA-23 producing multidrug-resistant Acinetobacter baumannii clinical isolate 17-6 assessed as inhibition of bacterial growth incubated for 18 to 20 hrs by two fold serial dilution assay. Particulars: time 18-20 hrs. It is filed as functional.
Data set [17] concerns Acinetobacter baumannii. Nature of the data set: Antibacterial activity against OXA-23 producing multidrug-resistant Acinetobacter baumannii clinical isolate 17-7 assessed as inhibition of bacterial growth incubated for 18 to 20 hrs by two fold serial dilution assay. In kind it is functional. As to conditions: time 18-20 hrs.
In data set [18] the test system is Acinetobacter baumannii. Briefly: Antibacterial activity against OXA-23 producing multidrug-resistant Acinetobacter baumannii clinical isolate 17-8 assessed as inhibition of bacterial growth incubated for 18 to 20 hrs by two fold serial dilution assay. In kind it is functional. As to conditions: time 18-20 hrs.
Data set [19] has as its system Klebsiella pneumoniae. Nature of the data set: Antibacterial activity against KPC-2 producing multidrug-resistant Klebsiella pneumoniae clinical isolate 15-3 assessed as inhibition of bacterial growth incubated for 18 to 20 hrs by two fold serial dilution assay. In kind it is functional. As to conditions: time 18-20 hrs.
Data set [20] has as its system Escherichia coli. Nature of the data set: Antibacterial activity against Escherichia coli NCTC-13353 assessed as inhibition of bacterial growth incubated for 18 to 20 hrs in presence of CAMHB medium by two fold serial dilution assay. In kind it is functional. As to conditions: time 18-20 hrs.
The subject of data set [21] is Escherichia coli. Briefly: Antibacterial activity against Escherichia coli ATCC-35218 assessed as inhibition of bacterial growth incubated for 18 to 20 hrs in presence of CAMHB medium by two fold serial dilution assay. In kind it is functional. Particulars: time 18-20 hrs.
The test system of data set [22] is Klebsiella pneumoniae. Briefly: Antibacterial activity against Klebsiella pneumoniae ATCC BAA-1898 assessed as inhibition of bacterial growth incubated for 18 to 20 hrs in presence of CAMHB medium by two fold serial dilution assay. In kind it is functional. As to conditions: time 18-20 hrs.
In data set [23] the test system is Escherichia coli. Nature of the data set: Antibacterial activity against Escherichia coli NCTC-13353 assessed as inhibition of bacterial growth incubated for 18 to 20 hrs in presence of iron-depleted CAMHB medium by two fold serial dilution assay. It is filed as functional. Particulars: time 18-20 hrs.
Data set [24] has as its system Escherichia coli. Briefly: Antibacterial activity against Escherichia coli ATCC-35218 assessed as inhibition of bacterial growth incubated for 18 to 20 hrs in presence of iron-depleted CAMHB medium by two fold serial dilution assay. It is filed as functional. As to conditions: time 18-20 hrs.
The test system of data set [25] is Klebsiella pneumoniae. Briefly: Antibacterial activity against Klebsiella pneumoniae ATCC BAA-1898 assessed as inhibition of bacterial growth incubated for 18 to 20 hrs in presence of iron-depleted CAMHB medium by two fold serial dilution assay. Particulars: time 18-20 hrs. In kind it is functional.
Data set [26] has as its target hERG (KCNH2) (Homo sapiens, UniProt Q12809). Nature of the data set: Inhibition of hERG at 40 uM by whole cell Qpatch assay relative to control. In kind it is toxicity. (In general: Block of hERG is tested as a sign of cardiac risk.)
Data set [27] has as its target Voltage-gated inwardly rectifying potassium channel KCNH2 (Homo sapiens, UniProt Q12809). Briefly: Inhibition of hERG by whole cell Qpatch assay. It is filed as toxicity.
Data set [28] is described as follows: AUC (0 to infinity) in ICR mouse at 20 mg/kg,iv administration measured upto 4 hrs by LC-MS/MS analysis. In kind it is ADME, organism-based. Particulars: in vivo.
A short description of data set [29]: Clearance in ICR mouse at 20 mg/kg,iv administration measured upto 4 hrs by LC-MS/MS analysis. Particulars: in vivo. In kind it is ADME, organism-based.
Data set [30] is described as follows: Half life in ICR mouse at 20 mg/kg,iv administration measured upto 4 hrs by LC-MS/MS analysis. It is filed as ADME, organism-based. Particulars: in vivo.
Data set [31] can be described thus: MRT in ICR mouse at 20 mg/kg,iv administration measured upto 4 hrs by LC-MS/MS analysis. As to conditions: in vivo. It is filed as ADME, organism-based.
Data set [32] is described as follows: Volume of distribution at steady state in ICR mouse at 20 mg/kg,iv administration measured upto 4 hrs by LC-MS/MS analysis. It is filed as ADME, organism-based. As to conditions: in vivo, read-out: Vdss.

The structures appear in SMILES notation. pIC50: −log10 of the molar value. Where only a bound is given, the exact number is not on record here.

What is called MIC is the smallest concentration in the dilution series that meets the test's criterion for growth inhibition. As a reminder, the inhibition is how much of the control response was suppressed. Low values mean a response near the control, high ones a response far below the control. One may read the pIC50 as −log10 of the IC50, conventionally taken in molar units. Higher therefore signals a small IC50. Usually AUC(0-inf) stands for total exposure, with the tail of the curve extrapolated. Usually clearance stands for a measure of how efficiently the substance is removed, as volume per time. Low values mean a low capacity for elimination, high ones a high capacity for elimination. As a reminder, the half-life is how long it takes for the measured level to halve. Lower therefore signals rapid decline. A word on the MRT: it is the average time that molecules of a dose stay in the body.

Voltage-gated inwardly rectifying potassium channel KCNH2, sequence (Q12809 whole entry): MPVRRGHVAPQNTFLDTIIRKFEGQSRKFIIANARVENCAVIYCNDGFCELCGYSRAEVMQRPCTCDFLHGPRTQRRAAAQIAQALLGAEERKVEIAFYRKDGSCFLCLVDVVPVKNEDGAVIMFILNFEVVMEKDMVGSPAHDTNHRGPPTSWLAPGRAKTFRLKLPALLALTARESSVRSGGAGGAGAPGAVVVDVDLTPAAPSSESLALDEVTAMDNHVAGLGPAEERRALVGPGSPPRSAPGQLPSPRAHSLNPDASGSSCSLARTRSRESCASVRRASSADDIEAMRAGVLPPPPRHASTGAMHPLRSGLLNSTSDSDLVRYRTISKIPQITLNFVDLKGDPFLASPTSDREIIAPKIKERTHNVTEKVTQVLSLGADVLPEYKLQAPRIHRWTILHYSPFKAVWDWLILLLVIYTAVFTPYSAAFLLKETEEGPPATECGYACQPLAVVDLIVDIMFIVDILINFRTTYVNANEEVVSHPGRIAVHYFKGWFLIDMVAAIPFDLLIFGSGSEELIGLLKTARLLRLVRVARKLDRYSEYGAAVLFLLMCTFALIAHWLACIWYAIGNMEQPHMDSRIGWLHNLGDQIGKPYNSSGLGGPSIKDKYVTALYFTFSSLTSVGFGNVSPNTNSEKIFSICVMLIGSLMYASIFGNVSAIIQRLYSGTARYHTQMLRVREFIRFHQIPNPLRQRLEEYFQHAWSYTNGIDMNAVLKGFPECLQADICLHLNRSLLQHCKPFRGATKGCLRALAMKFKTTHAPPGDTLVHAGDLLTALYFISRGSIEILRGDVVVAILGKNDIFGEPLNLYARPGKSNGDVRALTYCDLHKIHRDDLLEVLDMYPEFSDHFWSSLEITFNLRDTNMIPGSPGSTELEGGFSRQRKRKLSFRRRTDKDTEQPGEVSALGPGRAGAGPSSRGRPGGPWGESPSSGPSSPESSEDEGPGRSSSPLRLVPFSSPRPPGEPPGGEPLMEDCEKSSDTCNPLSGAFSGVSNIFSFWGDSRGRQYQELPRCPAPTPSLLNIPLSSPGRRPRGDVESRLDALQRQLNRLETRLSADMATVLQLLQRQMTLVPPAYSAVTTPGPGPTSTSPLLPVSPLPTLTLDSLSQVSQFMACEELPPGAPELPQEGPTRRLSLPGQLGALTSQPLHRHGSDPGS
hERG (KCNH2), sequence (Q12809 whole entry): as above

On to `Nc1nc(/C(=N/O[C@H](C(=O)O)C2CCC(F)(F)CC2)C(=O)N[C@@H]2C(=O)N3C(C(=O)O)=C(CSCCNC(=O)c4ccc(O)c(O)c4Cl)CS[C@H]23)cs1.O=C(O)C(F)(F)F`, for which the minimum inhibitory concentration (MIC) in [1] worked out at 0.25 µg/mL; in data set [2] it was 1 µg/mL; in [3] it was 0.125 µg/mL; in data set [4], 0.25 µg/mL; in [5], 1 µg/mL; in data set [6], 1 µg/mL. For the same compound, the MIC in [7] amounted to 0.125 µg/mL; in [8], 0.125 µg/mL; in data set [9] it was 64 µg/mL; in [10], 0.25 µg/mL; in [11], 0.5 µg/mL; in [12], 0.5 µg/mL. For the same compound, the MIC in data set [13] stood at 2 µg/mL; in data set [14] it was 8 µg/mL; in data set [15], 0.25 µg/mL; in data set [16], 0.5 µg/mL; in data set [17], 0.5 µg/mL; in data set [18], 1 µg/mL. Besides, the MIC in [19] amounted to 0.25 µg/mL; in [20], 1 µg/mL; in data set [21] it was 2 µg/mL; in data set [22], 8 µg/mL; in data set [23] it was 1 µg/mL; in data set [24], 0.5 µg/mL. Further, the minimum inhibitory concentration (MIC) in data set [25] amounted to 2 µg/mL. The compound further displayed an inhibition at 40 µM in [26] of 23.8%. In data set [27], this compound showed a negative-log IC50 (pIC50) of under 4.40.
Regarding `Cc1ccc(S(=O)(=O)O)cc1.Nc1nc(/C(=N/O[C@@H](C(=O)O)C2CCC(F)(F)CC2)C(=O)N[C@@H]2C(=O)N3C(C(=O)O)=C(CSCCNC(=O)c4ccc(O)c(O)c4Cl)CS[C@H]23)cs1`, the area under the curve AUC(0-inf) in data set [28] amounted to 2160 ng·h/mL. The compound further had a clearance in data set [29] of 160 mL/min/kg. In data set [30], this compound had a half-life of 19.8 min. The compound further had an MRT in data set [31] of 9 min. Besides, in data set [32], the Vd was found to be 1.44 L/kg.

The record behind these values is ChEMBL document CHEMBL5543142, “Discovery of YFJ-36: Design, Synthesis, and Antibacterial Activities of Catechol-Conjugated β-Lactams against Gram-Negative Bacteria” (J Med Chem, 2024).
